Article PMC5218480 (PLoS ONE, 2017)

Test system: MV-4-11 cells
Experiment: Gene expression microarray analysis (Affymetrix PrimeView) and GSEA
Format: cell-based, human
Set-up: RFU PODN (11730768_x_at) / Fold change /veh PODN (11730768_x_at) / RFU LINC00158 (11744669_a_at) / Fold change /veh LINC00158 (11744669_a_at) / RFU DUSP10 (11751237_a_at) / Fold change /veh DUSP10 (11751237_a_at) / RFU ID3 (11757404_x_at) / Fold change /veh ID3 (11757404_x_at) / RFU PLEKHG5 (11737974_s_at) / Fold change /veh PLEKHG5 (11737974_s_at) / RFU LRRC4B (11730491_at) / Fold change /veh LRRC4B (11730491_at) / RFU GIMAP4 (11747438_a_at) / Fold change /veh GIMAP4 (11747438_a_at) / RFU KRT8 (11758183_x_at) / Fold change /veh KRT8 (11758183_x_at) / RFU CNN1 (11734310_a_at) / Fold change /veh CNN1 (11734310_a_at) / RFU VPS37D (11726825_at) / Fold change /veh VPS37D (11726825_at) / RFU C10orf10 (11716522_x_at) / Fold change /veh C10orf10 (11716522_x_at) / RFU KIR2DL2 /// KIR2DL4 /// KIR2DL5A /// KIR2DL5B /// KIR2DS1 /// KIR2DS2 /// KIR2DS3 /// KIR2DS4 /// KIR3DL3 /// KIR3DL3 /// KIR3DS1 (11738374_at) / Fold change /veh KIR2DL2 /// KIR2DL4 /// KIR2DL5A /// KIR2DL5B /// KIR2DS1 /// KIR2DS2 /// KIR2DS3 /// KIR2DS4 /// KIR3DL3 /// KIR3DL3 /// KIR3DS1 (11738374_at) / RFU C1QL1 (11718748_at) / Fold change /veh C1QL1 (11718748_at) / RFU TMPRSS4 (11747572_a_at) / Fold change /veh TMPRSS4 (11747572_a_at) / RFU HAMP (11756126_x_at) / Fold change /veh HAMP (11756126_x_at) / RFU RNFT2 (11725882_a_at) / Fold change /veh RNFT2 (11725882_a_at) / RFU NR4A2 (11747474_a_at) / Fold change /veh NR4A2 (11747474_a_at) / RFU ABCC12 (11746883_a_at) / Fold change /veh ABCC12 (11746883_a_at) / RFU TMEM136 (11760407_x_at) / Fold change /veh TMEM136 (11760407_x_at) / RFU CLDN22 /// WWC2 (11732394_at) / Fold change /veh CLDN22 /// WWC2 (11732394_at) / RFU HLA-DPB1 (11760878_x_at) / Fold change /veh HLA-DPB1 (11760878_x_at) / RFU SPINT1 (11716480_a_at) / Fold change /veh SPINT1 (11716480_a_at) / RFU GAP43 (11754022_s_at) / Fold change /veh GAP43 (11754022_s_at) / RFU A4GNT (11735810_at) / Fold change /veh A4GNT (11735810_at) / RFU PRB3 (11715151_x_at) / Fold change /veh PRB3 (11715151_x_at) / RFU TUBB4B (11761932_at) / Fold change /veh TUBB4B (11761932_at) / RFU CAPN14 (11732068_a_at) / Fold change /veh CAPN14 (11732068_a_at) / RFU TMCC2 (11721928_a_at) / Fold change /veh TMCC2 (11721928_a_at) / RFU IRGQ (11745062_a_at) / Fold change /veh IRGQ (11745062_a_at) / RFU FAM174B (11720279_a_at) / Fold change /veh FAM174B (11720279_a_at) / RFU TMPRSS4 (11748680_a_at) / Fold change /veh TMPRSS4 (11748680_a_at) / RFU FAM212B (11763350_a_at) / Fold change /veh FAM212B (11763350_a_at) / RFU PLEKHG5 (11743358_a_at) / Fold change /veh PLEKHG5 (11743358_a_at) / RFU ZSCAN30 (11745921_a_at) / Fold change /veh ZSCAN30 (11745921_a_at) / RFU CMKLR1 (11741424_a_at) / Fold change /veh CMKLR1 (11741424_a_at) / RFU LOC101060620 /// MAPK8IP1 (11723275_at) / Fold change /veh LOC101060620 /// MAPK8IP1 (11723275_at) / RFU SPTSSB (11747773_x_at) / Fold change /veh SPTSSB (11747773_x_at) / RFU PRSS12 (11739890_at) / Fold change /veh PRSS12 (11739890_at) / RFU BIN1 (11741810_x_at) / Fold change /veh BIN1 (11741810_x_at) / RFU WNT11 (11732464_a_at) / Fold change /veh WNT11 (11732464_a_at) / RFU C10orf10 (11716521_a_at) / Fold change /veh C10orf10 (11716521_a_at) / RFU C5orf56 (11738089_at) / Fold change /veh C5orf56 (11738089_at) / RFU CYB561 (11721691_x_at) / Fold change /veh CYB561 (11721691_x_at) / RFU ANKRD19P (11752326_a_at) / Fold change /veh ANKRD19P (11752326_a_at) / RFU OR2T12 /// OR2T33 /// OR2T8 (11738714_s_at) / Fold change /veh OR2T12 /// OR2T33 /// OR2T8 (11738714_s_at) / RFU VCAN (11748164_a_at) / Fold change /veh VCAN (11748164_a_at) / RFU JSRP1 (11732532_at) / Fold change /veh JSRP1 (11732532_at) / RFU KRTAP10-11 (11738290_x_at) / Fold change /veh KRTAP10-11 (11738290_x_at) / RFU MYO3A (11730013_a_at) / Fold change /veh MYO3A (11730013_a_at) / RFU EBF3 (11725865_a_at) / Fold change /veh EBF3 (11725865_a_at) / RFU CAMK2N1 (11719241_x_at) / Fold change /veh CAMK2N1 (11719241_x_at) / RFU C5orf56 (11738088_a_at) / Fold change /veh C5orf56 (11738088_a_at) / RFU OLFML3 (11715873_a_at) / Fold change /veh OLFML3 (11715873_a_at) / RFU LOC100653217 /// NTM (11731650_a_at) / Fold change /veh LOC100653217 /// NTM (11731650_a_at) / RFU MAPK11 (11762145_a_at) / Fold change /veh MAPK11 (11762145_a_at) / RFU FIZ1 (11724087_x_at) / Fold change /veh FIZ1 (11724087_x_at) / RFU OASL (11726364_x_at) / Fold change /veh OASL (11726364_x_at) / RFU SOX15 (11748057_x_at) / Fold change /veh SOX15 (11748057_x_at) / RFU CD79A (11719716_a_at) / Fold change /veh CD79A (11719716_a_at) / RFU HIST1H1D (11736915_at) / Fold change /veh HIST1H1D (11736915_at) / RFU CASKIN2 (11723855_a_at) / Fold change /veh CASKIN2 (11723855_a_at) / RFU LOC730098 (11760151_x_at) / Fold change /veh LOC730098 (11760151_x_at) / RFU OR4N2 (11742367_at) / Fold change /veh OR4N2 (11742367_at) / RFU PRRT2 (11749266_a_at) / Fold change /veh PRRT2 (11749266_a_at) / RFU SNX32 (11753110_a_at) / Fold change /veh SNX32 (11753110_a_at) / RFU CDHR5 (11726645_a_at) / Fold change /veh CDHR5 (11726645_a_at) / RFU RCAN1 (11760418_a_at) / Fold change /veh RCAN1 (11760418_a_at) / RFU FAM167A (11723789_a_at) / Fold change /veh FAM167A (11723789_a_at) / RFU FAM26E (11764081_at) / Fold change /veh FAM26E (11764081_at) / RFU ISYNA1 (11749810_s_at) / Fold change /veh ISYNA1 (11749810_s_at) / RFU ACY1 (11761880_at) / Fold change /veh ACY1 (11761880_at) / RFU 11764098_at / Fold change /veh 11764098_at / RFU SAMD14 (11745864_x_at) / Fold change /veh SAMD14 (11745864_x_at) / RFU NPB (11741838_a_at) / Fold change /veh NPB (11741838_a_at) / RFU TMPRSS6 (11731388_a_at) / Fold change /veh TMPRSS6 (11731388_a_at) / RFU KRTAP10-2 (11738614_at) / Fold change /veh KRTAP10-2 (11738614_at) / RFU ARHGAP8 /// PRR5-ARHGAP8 (11727945_x_at) / Fold change /veh ARHGAP8 /// PRR5-ARHGAP8 (11727945_x_at) / RFU KRTAP5-7 /// NADSYN1 (11734609_at) / Fold change /veh KRTAP5-7 /// NADSYN1 (11734609_at) / RFU RASL12 (11751679_a_at) / Fold change /veh RASL12 (11751679_a_at) / RFU CDKN2B (11736163_a_at) / Fold change /veh CDKN2B (11736163_a_at) / RFU PRF1 (11729649_at) / Fold change /veh PRF1 (11729649_at) / RFU, ZNF638 /// ZNF638-IT1 / Fold change vs veh, ZNF638 /// ZNF638-IT1 / RFU, PANK3 / Fold change vs veh, PANK3 / RFU, SH3YL1 / Fold change vs veh, SH3YL1 / RFU, ZEB2 / Fold change vs veh, ZEB2 / RFU, NRIP1 / Fold change vs veh, NRIP1 / RFU, PTTG1IP / Fold change vs veh, PTTG1IP / RFU, CAPN2 / Fold change vs veh, CAPN2 / RFU, MED14 / Fold change vs veh, MED14 / RFU, SNORA58 / Fold change vs veh, SNORA58 / RFU, C1orf63 / Fold change vs veh, C1orf63 / RFU, LRRFIP1 / Fold change vs veh, LRRFIP1 / RFU, NDUFAF7 / Fold change vs veh, NDUFAF7 / RFU, SLC12A2 / Fold change vs veh, SLC12A2 / RFU, IBTK / Fold change vs veh, IBTK / RFU, ESF1 / Fold change vs veh, ESF1 / Fold change vs veh, TMEM50B / RFU, TAOK1 / Fold change vs veh, TAOK1 / RFU, ACBD3 / Fold change vs veh, ACBD3 / RFU, TMA16 / Fold change vs veh, TMA16 / RFU, RWDD3 / Fold change vs veh, RWDD3 / RFU, BCAT1 / Fold change vs veh, BCAT1 / RFU, EDEM3 / Fold change vs veh, EDEM3 / RFU, TMEM33 / Fold change vs veh, TMEM33 / RFU, WDR75 / Fold change vs veh, WDR75 / RFU, AHCTF1 / Fold change vs veh, AHCTF1 / RFU, TFRC / Fold change vs veh, TFRC / RFU, ZDHHC17 / Fold change vs veh, ZDHHC17 / RFU, NOM1 / Fold change vs veh, NOM1 / RFU, ARL8B / Fold change vs veh, ARL8B / RFU, ZBTB11 / Fold change vs veh, ZBTB11 / RFU, TAMM41 / Fold change vs veh, TAMM41 / RFU, KIAA1704 /// LOC100996395 / Fold change vs veh, KIAA1704 /// LOC100996395 / RFU, ING1 / Fold change vs veh, ING1 / RFU, TRMT61B / Fold change vs veh, TRMT61B / RFU, FUBP3 / Fold change vs veh, FUBP3 / RFU, TP53 / Fold change vs veh, TP53 / RFU, TNKS2 / Fold change vs veh, TNKS2 / RFU, ZFP14 / Fold change vs veh, ZFP14 / RFU, ACTR2 / Fold change vs veh, ACTR2 / RFU, PPP3R1 / Fold change vs veh, PPP3R1 / RFU, PIK3R1 / Fold change vs veh, PIK3R1 / RFU, HNRNPA1 / Fold change vs veh, HNRNPA1 / RFU, RNF170 / Fold change vs veh, RNF170 / RFU, ZNF28 / Fold change vs veh, ZNF28 / RFU, RNGTT / Fold change vs veh, RNGTT / RFU, OGT / Fold change vs veh, OGT / RFU, BRD1 / Fold change vs veh, BRD1 / RFU, MARS / Fold change vs veh, MARS / RFU, ZNF655 / Fold change vs veh, ZNF655 / RFU, FAHD1 / Fold change vs veh, FAHD1 / RFU, BDP1 / Fold change vs veh, BDP1 / RFU, LRRCC1 / Fold change vs veh, LRRCC1 / RFU, ARID1A / Fold change vs veh, ARID1A / RFU, ZNF146 / Fold change vs veh, ZNF146 / RFU, ZNF330 / Fold change vs veh, ZNF330 / RFU, GPN3 / Fold change vs veh, GPN3 / RFU, C9orf123 / Fold change vs veh, C9orf123 / RFU, N4BP2L2 / Fold change vs veh, N4BP2L2 / RFU, ARFIP1 / Fold change vs veh, ARFIP1 / RFU, FAM179B / Fold change vs veh, FAM179B / RFU, BCL10 / Fold change vs veh, BCL10 / RFU, UHRF1BP1L / Fold change vs veh, UHRF1BP1L / RFU, BET1 / Fold change vs veh, BET1 / RFU, CNOT2 / Fold change vs veh, CNOT2 / RFU, ZNF268 / Fold change vs veh, ZNF268 / Fold change vs veh, ZNF507 / RFU, DGCR2 / Fold change vs veh, DGCR2 / RFU, WDSUB1 / Fold change vs veh, WDSUB1 / Fold change vs veh, HSP90B1 /// MIR3652 / RFU, ADSS / Fold change vs veh, ADSS / RFU, GK / Fold change vs veh, GK / RFU, ZNF148 / Fold change vs veh, ZNF148 / RFU, TAF9 / Fold change vs veh, TAF9 / RFU, SLC1A5 / Fold change vs veh, SLC1A5 / RFU, SLMO2 / Fold change vs veh, SLMO2 / RFU, ABCC4 / Fold change vs veh, ABCC4 / RFU, LOC101060439 /// RAP1B / Fold change vs veh, LOC101060439 /// RAP1B / RFU, RFX7 / Fold change vs veh, RFX7 / RFU, GTPBP10 / Fold change vs veh, GTPBP10 / RFU, CNEP1R1 / Fold change vs veh, CNEP1R1 / RFU, BIVM-ERCC5 /// ERCC5 / Fold change vs veh, BIVM-ERCC5 /// ERCC5 / RFU, ILF3 / Fold change vs veh, ILF3 / RFU 11762660_at / Fold change /veh 11762660_at / RFU VCAN (11757783_s_at) / Fold change /veh VCAN (11757783_s_at) / RFU DDX43 (11728927_at) / Fold change /veh DDX43 (11728927_at) / RFU KRT8 (11758188_x_at) / Fold change /veh KRT8 (11758188_x_at) / RFU NKD1 (11759106_at) / Fold change /veh NKD1 (11759106_at) / RFU SRD5A1 (11742802_a_at) / Fold change /veh SRD5A1 (11742802_a_at) / RFU TPSAB1 /// TPSB2 (11721975_s_at) / Fold change /veh TPSAB1 /// TPSB2 (11721975_s_at) / RFU GSTM3 (11746129_a_at) / Fold change /veh GSTM3 (11746129_a_at) / RFU IL23R (11737362_x_at) / Fold change /veh IL23R (11737362_x_at) / RFU TMEM51 (11727254_a_at) / Fold change /veh TMEM51 (11727254_a_at) / RFU PIWIL2 (11732686_x_at) / Fold change /veh PIWIL2 (11732686_x_at) / RFU ORM1 (11744905_x_at) / Fold change /veh ORM1 (11744905_x_at) / RFU CCDC152 (11743942_at) / Fold change /veh CCDC152 (11743942_at) / RFU ECM1 (11717891_a_at) / Fold change /veh ECM1 (11717891_a_at) / RFU IL23R (11748794_a_at) / Fold change /veh IL23R (11748794_a_at) / RFU TNFAIP8L3 (11732012_x_at) / Fold change /veh TNFAIP8L3 (11732012_x_at) / RFU MBOAT4 (11741988_at) / Fold change /veh MBOAT4 (11741988_at) / RFU 11764193_at / Fold change /veh 11764193_at / RFU TMEM53 (11763286_at) / Fold change /veh TMEM53 (11763286_at) / RFU MAGEB2 (11727129_at) / Fold change /veh MAGEB2 (11727129_at) / RFU TMEM200A (11744735_a_at) / Fold change /veh TMEM200A (11744735_a_at) / RFU CCDC152 (11751479_a_at) / Fold change /veh CCDC152 (11751479_a_at) / RFU FAM211A (11726209_a_at) / Fold change /veh FAM211A (11726209_a_at) / RFU RGS16 (11746705_a_at) / Fold change /veh RGS16 (11746705_a_at) / RFU VCAN (11755009_s_at) / Fold change /veh VCAN (11755009_s_at) / RFU RHOB (11743442_s_at) / Fold change /veh RHOB (11743442_s_at) / RFU RGS16 (11720943_a_at) / Fold change /veh RGS16 (11720943_a_at) / RFU RGS16 (11720944_at) / Fold change /veh RGS16 (11720944_at) / RFU, VPS4B / Fold change vs veh, VPS4B / RFU, CREB1 / Fold change vs veh, CREB1 / RFU, DNAJC13 / Fold change vs veh, DNAJC13 / RFU, GNAQ / Fold change vs veh, GNAQ / RFU, CDK5R1 / Fold change vs veh, CDK5R1 / RFU, ZRANB3 / Fold change vs veh, ZRANB3 / RFU, CUL4A / Fold change vs veh, CUL4A / RFU, CCNY / Fold change vs veh, CCNY / RFU, UFL1 / Fold change vs veh, UFL1 / RFU, COG3 / Fold change vs veh, COG3 / RFU, DIAPH2 / Fold change vs veh, DIAPH2 / RFU, SKA2 / Fold change vs veh, SKA2 / RFU, AFF3 / Fold change vs veh, AFF3 / RFU, LMF1 / Fold change vs veh, LMF1 / RFU, IPO11 / Fold change vs veh, IPO11 / RFU, DFFB / Fold change vs veh, DFFB / RFU, FOXP1 / Fold change vs veh, FOXP1 / RFU, CARD8 / Fold change vs veh, CARD8 / RFU, STRN3 / Fold change vs veh, STRN3 / RFU, ADK / Fold change vs veh, ADK / RFU, RASSF2 / Fold change vs veh, RASSF2 / RFU, WIPF1 / Fold change vs veh, WIPF1 / RFU, LARP1B / Fold change vs veh, LARP1B / RFU, RASA1 / Fold change vs veh, RASA1 / RFU, RB1 / Fold change vs veh, RB1 / RFU, PPFIA1 / Fold change vs veh, PPFIA1 / RFU, MAT2A / Fold change vs veh, MAT2A / RFU, CCT5 / Fold change vs veh, CCT5 / RFU, WDR92 / Fold change vs veh, WDR92 / RFU, CUX1 / Fold change vs veh, CUX1 / RFU, TTC7A / Fold change vs veh, TTC7A / RFU, TMEM135 / Fold change vs veh, TMEM135 / RFU, DEPTOR / Fold change vs veh, DEPTOR / RFU, CPM / Fold change vs veh, CPM / RFU, DNAJB6 / Fold change vs veh, DNAJB6 / RFU, CACNA2D3 / Fold change vs veh, CACNA2D3 / RFU, DTX4 / Fold change vs veh, DTX4 / RFU, TFCP2 / Fold change vs veh, TFCP2 / RFU, GMCL1 /// GMCL1P1 / Fold change vs veh, GMCL1 /// GMCL1P1 / RFU, AEBP2 / Fold change vs veh, AEBP2 / RFU, SNHG1 /// SNORD22 /// SNORD25 /// SNORD26 /// SNORD27 /// SNORD28 /// SNORD29 /// SNORD31 / Fold change vs veh, SNHG1 /// SNORD22 /// SNORD25 /// SNORD26 /// SNORD27 /// SNORD28 /// SNORD29 /// SNORD31 / Fold change (Aza/veh), C12orf56 (ProbeSet 11735607_a_at) / Fold change (ACY-1035/veh), C12orf56 (ProbeSet 11735607_a_at) / Fold change (Aza/veh), FGFR1OP (ProbeSet 11751329_s_at) / Fold change (ACY-1035/veh), FGFR1OP (ProbeSet 11751329_s_at) / Fold change (Aza/veh), VPS36 (ProbeSet 11739960_a_at) / Fold change (ACY-1035/veh), VPS36 (ProbeSet 11739960_a_at) / RFU SYPL1 (11715823_x_at) / Fold change /veh SYPL1 (11715823_x_at) / RFU IGFBP7 (11715501_s_at) / Fold change /veh IGFBP7 (11715501_s_at) / RFU REEP3 (11722064_at) / Fold change /veh REEP3 (11722064_at) / RFU IGLL1 (11728026_x_at) / Fold change /veh IGLL1 (11728026_x_at): dose or concentration left out as unconfirmed
Details: MV-4-11 cells, 48 hours

Compound: Nc1ncn([C@@H]2O[C@H](CO)[C@@H](O)[C@H]2O)c(=O)n1 [azacitidine]
- Fold change /veh VCAN (11755009_s_at): 1.97
